Experiments:
rice plants = experiment: Paddy pot test, harmful effects on transplanted rice plants; type: in vivo; design: scale not given here; conditions: Screening, 63 g/ha, applied at Echinochloa crus-galli 1.5-leaf stage, examined after 3 weeks
Method: (§1) Plastic pots having an area of 100 cm^2 and a depth of 10 cm were filled with paddy soil which is puddled by adding water, and seeds of Echinochloa crus-galli and Scirpus juncoides were planted in the pots. After seeding, rice plants at the 2.5-leaf stage were transplanted and the pots were filled with water. The rice plants were grown in a greenhouse. […] The herbicidal effects and harmful effects on the rice plants were examined after 3 weeks. Herbicidal effects were examined according to the examination criteria described below and were represented by the herbicidal index. [table] […] [formula]

Scirpus juncoides = experiment: Paddy pot test, herbicidal effect on Scirpus juncoides; type: in vivo; design: scale not given here; conditions: Screening, 63 g/ha, examined after 3 weeks
Method: as §1

Echinochloa crus-galli = experiment: Paddy pot test, herbicidal effect on Echinochloa crus-galli; type: in vivo; design: scale not given here; conditions: Screening, 63 g/ha, applied at 1.5-leaf stage, examined after 3 weeks
Method: as §1

Row | Compound | melting point [°C] | Rice (harmful effects on the rice plants, index) (rice plants) | Scripus juncoides (herbicidal index) (Scirpus juncoides) | Echinochloa crus-galli (herbicidal index) (Echinochloa crus-galli)
1 | Cc1ccc(C(=O)c2c(C)nn(C)c2O)c(C)c1N=S1(=O)CCCCC1 [Example 109] | 122 to 124 | 0 | 8 | 7
2 | COc1ccc(C(=O)c2cnn(C)c2O)c(F)c1N=S1(=O)CCCCC1 [Example 112] | 107 to 109 | 0 | 8 | 8
3 | COc1ccc(C(=O)c2cnn(C)c2OCc2ccc3ccccc3c2)c(OC)c1N=S1(=O)CCOCC1 [Example 134] |  | 0 | 8 | 5
4 | COc1c(C(=O)c2cnn(C)c2OCc2ccc3ccccc3c2)ccc(C)c1N=S1(=O)CCCCC1 [Example 136] |  | 0 | 8 | 7
5 | CCN(CC)CC.COc1ccc(C(=O)c2cnn(C)c2O)c(Cl)c1N=S1(=O)CCCCC1 [Example 137] |  | 0 | 8 | 10
6 | COc1ccc(C(=O)c2cnn(C)c2OC(=O)c2ccccc2)c(Cl)c1N=S1(=O)CCCCC1 [Example 138] |  | 0 | 8 | 10
7 | CCCS(=O)(CCC)=Nc1c(OC)ccc(C(=O)c2cnn(C)c2O)c1Cl [Example 145] |  | 0 | 8 | 10
8 | CCCS(=O)(CCC)=Nc1c(OC)ccc(C(=O)c2cnn(C)c2OCc2ccc3ccccc3c2)c1Cl [Example 146] |  | 0 | 6 | 5
9 | CCS(=O)(CC)=Nc1c(C(=O)OC)ccc(C(=O)C2=C(O)CCCC2=O)c1Cl [Example 148] |  | 0 | 8 | 6
10 | COc1ccc(C(=O)c2cnn(C)c2OCc2ccc3ccccc3c2)c(Cl)c1N=S(C)(C)=O [Example 151] |  | 0 | 5 | 6
11 | COC(=O)c1ccc(C(=O)c2cnn(C)c2OC(=O)SC)c(Cl)c1N=S1(=O)CCCCC1 [Example 152] |  | 0 | 8 | 10
12 | COC(=O)c1ccc(C(=O)c2cn(C(=O)SC)n(C)c2=O)c(Cl)c1N=S1(=O)CCCCC1 [Example 153] |  | 0 | 8 | 7
13 | COc1ccc(C(=O)c2cn(C(=O)SC)n(C)c2=O)c(Cl)c1N=S1(=O)CCCCC1 [Example 155] |  | 0 | 8 | 8
14 | CCS(=O)(CC)=Nc1c(C)ccc(C(=O)C2=C(O)CCCC2=O)c1C [Example 158] |  | 0 | 5 | 5
15 | COC(=O)c1ccc(C(=O)C(C#N)C(=O)C2CC2)c(Cl)c1N=S1(=O)CCCCC1 (centres unmarked) [Example 165] |  | 0 | 8 | 5
16 | C#Cc1ccc(C(=O)c2cnn(C)c2O)c(Cl)c1N=S1(=O)CCCCC1 [Example 166] |  | 0 | 8 | 6

Row | Compound | melting point [°C] | Rice (harmful effects on the rice plants, index) (rice plants) | Scripus juncoides (herbicidal index) (Scirpus juncoides) | Echinochloa crus-galli (herbicidal index) (Echinochloa crus-galli)
17 | C#Cc1ccc(C(=O)C2=C(O)CCCC2=O)c(Cl)c1N=S1(=O)CCCCC1 [Example 173] |  | 0 | 7 | 5
18 | CCOc1ccc(C(=O)c2cnn(C)c2OC(=O)SC)c(OC)c1N=S1(=O)CCCCC1 [Example 177] |  | 0 | 7 | 5
19 | Cn1ncc(C(=O)c2ccc(OC(F)F)c(N=S3(=O)CCCCC3)c2Cl)c1OCc1ccc2ccccc2c1 [Example 182] |  | 0 | 7 | 10
20 | COc1ccc(C(=O)c2cnn(C)c2OC(=O)SC)c(OC)c1N=S1(=O)CCCCC1 [Example 183] |  | 0 | 6 | 7
21 | CSC(=O)Oc1c(C(=O)c2ccc(OC(F)F)c(N=S3(=O)CCCCC3)c2Cl)cnn1C [Example 185] |  | 0 | 7 | 10
22 | CCc1ccc(C(=O)c2cnn(C)c2O)c(Cl)c1N=S1(=O)CCCCC1 [Example 188] |  | 1 | 7 | 10
23 | CSC(=O)Oc1c(C(=O)c2cccc(N=S3(=O)CCCCC3)c2Br)cnn1C [Example 197] |  | 0 | 7 | 7
24 | COC(=O)c1ccc(C(=O)c2cnn(C)c2OC(=O)SC(C)C)c(Cl)c1N=S1(=O)CCCCC1 [Example 201] |  | 0 | 7 | 5
25 | CCCSC(=O)Oc1c(C(=O)c2ccc(C(=O)OC)c(N=S3(=O)CCCCC3)c2Cl)cnn1C [Example 202] |  | 0 | 7 | 7
26 | COC(=O)c1ccc(C(=O)c2cnn(C)c2OC(=O)SC(C)(C)C)c(Cl)c1N=S1(=O)CCCCC1 [Example 203] |  | 0 | 7 | 10
27 | C=C(C)c1ccc(C(=O)c2cnn(C)c2O)c(Cl)c1N=S1(=O)CCCCC1 [Example 204] |  | 0 | 7 | 5
28 | C=C(C)c1ccc(C(=O)c2cnn(C)c2OC(=O)SC)c(Cl)c1N=S1(=O)CCCCC1 [Example 207] |  | 0 | 7 | 6
29 | CC(C)c1ccc(C(=O)C2=C(O)CCCC2=O)c(Cl)c1N=S1(=O)CCCCC1 [Example 209] |  | 0 | 6 | 7
30 | COc1ccc(C(=O)c2cnn(C)c2OC(=O)SC)c(Cl)c1N=S(C)(=O)C(C)C (centres unmarked) [Example 211] |  | 0 | 8 | 6
31 | CCS(=O)(CC)=Nc1c(OC)ccc(C(=O)c2cnn(C)c2OCc2ccc3ccccc3c2)c1Cl [Example 248] |  | 0 | 8 | 5
32 | COc1ccc(C(=O)c2c(C)nn(C)c2OCc2ccc3ccccc3c2)c(Cl)c1N=S1(=O)CCCCC1 [Example 253] |  | 0 | 8 | 6

Reference: patent US20110144345A1, “SULFOXYIMINO-SUBSTITUTED BENZOYL DERIVATIVE AND HERBICIDE” (NIPPON SODA CO., LTD., priority 2008, published 2011)
